Literature values, collected in US7141607B1, “Methods and compositions for treating and inhibiting retinal neovascularization” (Insite Vision Incorporated, priority 2000, dated 2006).

System: retinal neovascularization
Details: IP injection on days 12, 14 and 16; same animal model

In the case of CNC(=O)[C@H](Cc1ccccc1)NC(=O)[C@H](CC(C)C)[C@H](CSc1cccs1)C(=O)NO (relative stereo) [batimastat, [2-R-[1(S*),2R*,3S*]]-N^4-hydroxy-N^1-[2-(methylamino)-2-oxo-1-(phenylmethyl)ethyl]-2-(2-methylpropyl)-3-[(2-thienylthio)methyl]butanediamide], the reduction in neovascularization is listed as 72%.
